Read-outs that look alike come from different tables or passages of the source.
How the values were obtained:
ddY mouse = test: Elevated plus-maze (EPM) test; type: in vivo
Experimental: The test was conducted 30 minutes after oral administration of a sample, and the evaluation was conducted based on the 5-minute test time. 23 to 27 g male ddY mice were used as animals to be studied. Cumulative time in open arms was recorded, and the percentage (%) of the time in open arms was used as an index for an anxiolytic-like effect.
The anxiolytic-like effect of a peptide or peptide conjugate can be evaluated by an elevated plus-maze test which has been developed as an anxiety-related behavior evaluation method for screening for anti-anxiety agents and is widely used (FIG. 1). Specifically, a candidate substance is orally or intraperitoneally administered to each mouse. 30 minutes later, the mouse is placed in an elevated plus-maze. The strength of the anxiolytic-like effect can be evaluated by using the number of entries into open arms and change in residence time in the open arms as indexes.
(§1) The elevated plus-maze consists of two open arms (25 cm×5 cm) and two closed arms (25 cm×5 cm×15 cm), and these arms are connected to a central platform elevated by 50 cm from the floor (see FIG. 1). In spite of such an elevated position, mice can walk safely in the closed arms because the closed arms are fenced. On the other hand, mice waking in the open arms feel anxious about falling from the elevated position because the open arms are open without being fenced. Therefore, a longer time when a mouse stays in the open arms means that mouse's feeling of anxiety is more alleviated, and serves as an index for an anxiolytic-like effect.
(§2) As shown in the right diagram of FIG. 1, a sample was administered to each mouse (ddY mouse, male, 23 to 27 g) 30 minutes before the test. 30 minutes later, the mouse was placed on the central platform facing one of the open arms to start the test. Cumulative time in the open arms was recorded during the 5-minute test time. The percentage of the time in the open arms was calculated as an index for an anxiolytic-like effect.
The data obtained by the test was indicated by the sum of a mean and a standard error of the mean (SEM). The data shown in FIGS. 1 to 9, 17, 18, 20, and 21 was analyzed by one-way or two-way ANOVA. Subsequently, study was conducted for multiple comparison by the Tukey Kramer method. P-value of <0.05 is denoted in the drawings as “*”; p-value of <0.01 is denoted in the drawings as “**”.

[1] = target: T1, serotonin 5-HT1A receptor (Mus musculus, UniProt Q64264); test: Elevated plus-maze test with 5-HT1A receptor antagonist WAY100135; type: in vivo; conditions: elevated plus-maze with or without WAY100135
T1 construct: from tissue; host or cells: whole living animal (ddY mouse, male)
T1 sequence (Q64264 1-421): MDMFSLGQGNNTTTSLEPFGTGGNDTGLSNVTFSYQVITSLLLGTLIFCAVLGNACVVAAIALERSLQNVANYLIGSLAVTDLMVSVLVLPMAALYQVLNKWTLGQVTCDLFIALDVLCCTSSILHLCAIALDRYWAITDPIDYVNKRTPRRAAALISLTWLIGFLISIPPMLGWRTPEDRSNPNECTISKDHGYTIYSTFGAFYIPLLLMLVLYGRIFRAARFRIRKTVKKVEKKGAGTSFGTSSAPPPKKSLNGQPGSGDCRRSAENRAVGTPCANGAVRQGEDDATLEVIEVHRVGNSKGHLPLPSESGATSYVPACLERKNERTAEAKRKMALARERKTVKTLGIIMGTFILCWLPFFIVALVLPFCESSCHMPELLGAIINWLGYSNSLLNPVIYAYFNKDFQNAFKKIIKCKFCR
Source text: as §1, §2
The peptide SYLPPLTT (SEQ ID NO: 1) or the peptide SYLPPLT (SEQ ID NO: 4) (dose: 1.0 mg/kg) was used in combination with a serotonin 5-HT1A receptor antagonist WAY100135 (dose: 10 mg/kg) and orally administered (p.o.) to each mouse, which was then used in the elevated plus-maze test (n=4 to 6).
The peptide YHIEPV (SEQ ID NO:2) was orally administered as a sample to mice 30 minutes before an elevated plus-maze test, with or without WAY100135, an antagonist selective for 5-HT1A receptor (n=13-15). WAY100135 was administered 50 minutes before the elevated plus-maze test. Separately, the peptide YHIEPV (SEQ ID NO:2) was orally administered as a sample to mice 30 minutes before an elevated plus-maze test, with or without naltrindole, an […] receptor antagonist, which was administered 50 minutes before the elevated plus-maze test (n=11-15).

δ opioid receptor = target: T2, δ opioid receptor (Mus musculus, UniProt P32300); test: Elevated plus-maze test with opioid receptor antagonist naltrindole; type: in vivo; conditions: elevated plus-maze with or without naltrindole given 50 min before test; peptide oral 30 min before
T2 construct: orally administered as a sample to mice 30 minutes before an elevated plus-maze test, with or without naltrindole; from tissue; host or cells: whole living animal (ddY mouse, male)
T2 sequence (P32300 whole entry): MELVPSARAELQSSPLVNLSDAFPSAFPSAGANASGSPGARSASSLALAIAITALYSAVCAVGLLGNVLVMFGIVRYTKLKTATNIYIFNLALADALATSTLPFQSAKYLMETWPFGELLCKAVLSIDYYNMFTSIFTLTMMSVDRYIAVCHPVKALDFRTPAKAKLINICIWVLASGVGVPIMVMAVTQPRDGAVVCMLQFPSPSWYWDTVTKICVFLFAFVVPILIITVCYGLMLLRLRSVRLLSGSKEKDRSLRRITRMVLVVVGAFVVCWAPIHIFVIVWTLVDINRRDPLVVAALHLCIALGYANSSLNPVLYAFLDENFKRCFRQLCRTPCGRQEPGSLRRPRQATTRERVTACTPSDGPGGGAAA
Source text: as §1, §2
The peptide YHIEPV (SEQ ID NO:2) was orally administered as a sample to mice 30 minutes before an elevated plus-maze test, with or without WAY100135, an antagonist selective for 5-HT1A receptor (n=13-15). WAY100135 was administered 50 minutes before the elevated plus-maze test. […]

[2] = stated in Non Patent Literature 1; cited from earlier work
ddY mice [3] = conditions: general statement on anti-depressant drugs; cited from earlier work
ddY mice [4] = test: Tail suspension test; type: in vivo, mouse; conditions: 30 min before 6-min suspension
Experimental: Antidepressant-like effect can be evaluated by a tail suspension test. The tail suspension test is an experimental method used to screen potential antidepressant drugs (Can et al., 2012, J Vis Exp., 59:e3769). The amount of time that a mouse is immobile (i.e. is not displaying escape behavior) during the six minutes is measured to provide an immobility time. […] Therefore, if a reduction of immobility time is observed when testing a test substance, it can be concluded that the test substance has anti-depressant properties. Immobility is considered a despair state, and, therefore, a reduction of immobility time also indicates an increase in motivation (i.e., that the test substance has motivation-increasing properties).
The peptide SYLPPLT (SEQ ID NO: 4) was administered orally to mice (ddY mice, males, 24˜30 g) at 0.03 mg/kg, 0.1 mg/kg or 0.3 mg/kg and 30 minutes later the mice were suspended by their tails for six minutes.(n=11 to 14)

[5] = oral 0.1 mg/kg, 30 min before 5-min test, vs vehicle saline
[6] = Example 16, oral, SYLPPLTT 0.3, 1, SYLPPLT 0.1, 0.3, 1, YHIEPV 1, 3, 10, diazepam 1, 3, 10 mg/kg, result not split by dose
[7] = oral 1 mg/kg, 30 min before 5-min test, vs vehicle saline
[8] = oral 10 mg/kg, 30 min before 5-min test, vs vehicle saline
[9] = oral 0.3 mg/kg, 30 min before 5-min test, vs vehicle saline

## YLLNNK
ddY mouse; [5]
  ratio of an open arm residence time: increased

## LVK
ddY mouse; [5]
  ratio of an open arm residence time: increased

## YLLV
ddY mouse; [5]
  ratio of an open arm residence time: increased

## YHIEPV
[1]
  anxiolytic-like effect mediated by serotonin 5-HT1A receptor: not mediated by activation of serotonin 5-HTopio1A receptor
ddY mouse; [6]
  ratio of an open arm residence time: increased
ddY mouse; [7]
  ratio of an open arm residence time: increased
ddY mouse; oral 3 mg/kg, 30 min before 5-min test, vs vehicle saline
  ratio of an open arm residence time: statistically significant
ddY mouse; [8]
  ratio of an open arm residence time: statistically significant
δ opioid receptor
  anxiolytic-like effect mediated by opioid receptor: mediated by activation 8-opioid receptor

## CN1C(=O)CN=C(c2ccccc2)c2cc(Cl)ccc21 [diazepam, Diazepam, reference compound]
ddY mouse; [6]
  ratio of an open arm residence time: increase observed

## YLLVK
ddY mouse; oral 0.03 mg/kg, 30 min before 5-min test, vs vehicle saline
  ratio of an open arm residence time: significantly increased
ddY mouse; oral 0.1 mg/kg, 30 min before 5-min test, vs vehicle saline, 0.1 mg/kg
  ratio of an open arm residence time: significantly increased

## Rubiscolin-6
[2]
  anxiolytic effect: has an anxiolytic effect

## SYLPPL
ddY mouse; [9]
  ratio of an open arm residence time: increased
ddY mouse; [7]
  ratio of an open arm residence time: increased
ddY mouse; [8]
  ratio of an open arm residence time: increased

## YLL (NYLLVKG)
ddY mouse; [5]
  ratio of an open arm residence time: increased

## CN(C)CCCN1c2ccccc2CCc2ccccc21 [imipramine]
ddY mice [3]
  immobility time: reduces immobility time

## YLLAVK
ddY mouse; [6]
  ratio of an open arm residence time: increased
ddY mouse; [5]
  ratio of an open arm residence time: increased

## SYLPPLTT
[1]
  anxiolytic-like effect mediated by serotonin 5-HT1A receptor: mediated by activation of serotonin 5-HT1A receptor
ddY mouse; [6]
  ratio of an open arm residence time: increased
ddY mouse; [9]
  ratio of an open arm residence time: increased
ddY mouse; [7]
  ratio of an open arm residence time: statistically significant

## YLLVR
ddY mouse; [5]
  ratio of an open arm residence time: increased

## WLLVK
ddY mouse; [5]
  ratio of an open arm residence time: increased

## NYLLVKG
ddY mouse; [5]
  ratio of an open arm residence time: increased

## LLVK
ddY mouse; [5]
  ratio of an open arm residence time: increased

## FLLVK
ddY mouse; [5]
  ratio of an open arm residence time: increased

## SYLPPLT
[1]
  anxiolytic-like effect mediated by serotonin 5-HT1A receptor: mediated by activation of serotonin 5-HT1A receptor
ddY mice [4]; oral 0.03 mg/kg
  immobility time: decrease
ddY mice [4]; oral 0.1 mg/kg
  immobility time: decrease
ddY mice [4]; oral 0.3 mg/kg
  immobility time: decrease
ddY mouse; [6]
  ratio of an open arm residence time: increased
ddY mouse; [5]
  ratio of an open arm residence time: increased
ddY mouse; [9]
  ratio of an open arm residence time: increased
ddY mouse; [7]
  ratio of an open arm residence time: statistically significant

## YLVK
ddY mouse; [5]
  ratio of an open arm residence time: increased

From patent publication US20240166686A1, “THERAPEUTIC PEPTIDES” (Kyoto University, priority 2017, published 2024)
